Test results as given in ChEMBL document CHEMBL3714760, “Substituted pyrrolo[2,3b]pyrazines and methods for treatment of raf protein kinase-mediated indications” (2012).
pIC50: −log10 of the molar value.

Columns and labels:
[1] = target: RAF proto-oncogene serine/threonine-protein kinase (Homo sapiens, UniProt P04049); assay: Inhibition of human C-raf using biotin-MEKl substrate incubated for 1 hr
[2] = target: T1, Serine/threonine-protein kinase A-Raf (Homo sapiens, UniProt P10398); assay: Inhibition of A-raf (unknown origin)
T1 sequence (P10398 whole entry): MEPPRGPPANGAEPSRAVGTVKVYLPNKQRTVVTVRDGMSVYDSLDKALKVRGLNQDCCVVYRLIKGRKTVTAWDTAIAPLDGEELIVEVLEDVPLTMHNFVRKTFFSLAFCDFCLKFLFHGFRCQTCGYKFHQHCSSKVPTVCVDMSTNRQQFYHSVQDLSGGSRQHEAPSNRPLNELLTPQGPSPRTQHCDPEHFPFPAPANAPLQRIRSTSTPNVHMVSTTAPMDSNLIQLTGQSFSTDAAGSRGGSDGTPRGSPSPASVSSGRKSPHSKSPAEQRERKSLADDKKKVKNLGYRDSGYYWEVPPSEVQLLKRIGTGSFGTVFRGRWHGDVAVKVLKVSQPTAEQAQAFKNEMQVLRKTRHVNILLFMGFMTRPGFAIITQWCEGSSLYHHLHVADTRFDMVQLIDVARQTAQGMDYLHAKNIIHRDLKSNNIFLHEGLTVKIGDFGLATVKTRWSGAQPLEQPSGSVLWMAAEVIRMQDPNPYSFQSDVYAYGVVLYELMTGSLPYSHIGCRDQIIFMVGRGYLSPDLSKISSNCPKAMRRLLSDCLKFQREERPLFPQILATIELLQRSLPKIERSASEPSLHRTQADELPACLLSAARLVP

[3] = target: Serine/threonine-protein kinase B-raf (Homo sapiens, UniProt P15056); assay: Inhibition of N-terminal GST-tagged human recombinant B-Raf (416 to end residues) using biotin-MEKl substrate incubated for 1 hr
[4] = target: Vascular endothelial growth factor receptor 2 (Homo sapiens, UniProt P35968); assay: Inhibition of KDR (unknown origin)
[5] = target: Proto-oncogene tyrosine-protein kinase Src (Homo sapiens, UniProt P12931); assay: Inhibition of Src (unknown origin) expressed in Escherichia coli using biotin-(E4Y)3 substrate
Chain of Proto-oncogene tyrosine-protein kinase Src (P12931 2-536 limits assumed): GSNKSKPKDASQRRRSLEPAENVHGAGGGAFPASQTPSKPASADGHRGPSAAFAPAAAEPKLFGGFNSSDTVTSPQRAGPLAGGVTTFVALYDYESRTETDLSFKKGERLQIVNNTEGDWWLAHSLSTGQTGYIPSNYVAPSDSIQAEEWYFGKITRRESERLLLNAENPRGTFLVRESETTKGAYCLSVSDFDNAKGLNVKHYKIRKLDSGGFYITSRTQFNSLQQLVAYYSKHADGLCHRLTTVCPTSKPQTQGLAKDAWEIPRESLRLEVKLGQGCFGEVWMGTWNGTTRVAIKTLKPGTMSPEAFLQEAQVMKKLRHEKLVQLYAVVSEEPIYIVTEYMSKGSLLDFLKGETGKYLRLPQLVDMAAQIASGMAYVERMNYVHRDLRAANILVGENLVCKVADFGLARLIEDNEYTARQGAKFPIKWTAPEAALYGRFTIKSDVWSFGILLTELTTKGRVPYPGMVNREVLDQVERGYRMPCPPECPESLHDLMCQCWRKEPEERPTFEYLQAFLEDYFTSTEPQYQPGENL

Chain of Serine/threonine-protein kinase B-raf (P15056 whole entry): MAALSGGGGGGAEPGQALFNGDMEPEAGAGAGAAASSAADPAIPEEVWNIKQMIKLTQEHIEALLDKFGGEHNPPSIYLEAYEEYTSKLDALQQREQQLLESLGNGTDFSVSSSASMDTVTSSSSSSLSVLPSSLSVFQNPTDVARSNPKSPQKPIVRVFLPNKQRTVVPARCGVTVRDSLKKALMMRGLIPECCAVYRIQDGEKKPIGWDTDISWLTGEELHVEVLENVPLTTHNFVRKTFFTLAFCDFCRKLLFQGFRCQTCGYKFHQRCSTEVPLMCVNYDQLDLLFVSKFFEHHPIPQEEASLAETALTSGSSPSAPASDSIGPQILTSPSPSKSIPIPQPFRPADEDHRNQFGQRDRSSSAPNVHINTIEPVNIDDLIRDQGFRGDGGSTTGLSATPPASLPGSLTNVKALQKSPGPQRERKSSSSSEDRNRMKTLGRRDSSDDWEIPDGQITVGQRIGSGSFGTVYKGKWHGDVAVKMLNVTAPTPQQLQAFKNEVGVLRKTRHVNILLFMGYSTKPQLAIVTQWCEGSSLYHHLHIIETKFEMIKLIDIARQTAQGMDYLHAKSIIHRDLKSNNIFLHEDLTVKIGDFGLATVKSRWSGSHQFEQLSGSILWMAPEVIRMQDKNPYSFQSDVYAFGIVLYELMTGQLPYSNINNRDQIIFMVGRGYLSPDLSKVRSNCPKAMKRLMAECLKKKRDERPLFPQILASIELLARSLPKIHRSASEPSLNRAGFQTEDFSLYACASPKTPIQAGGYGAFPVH
Chain of RAF proto-oncogene serine/threonine-protein kinase (P04049 whole entry): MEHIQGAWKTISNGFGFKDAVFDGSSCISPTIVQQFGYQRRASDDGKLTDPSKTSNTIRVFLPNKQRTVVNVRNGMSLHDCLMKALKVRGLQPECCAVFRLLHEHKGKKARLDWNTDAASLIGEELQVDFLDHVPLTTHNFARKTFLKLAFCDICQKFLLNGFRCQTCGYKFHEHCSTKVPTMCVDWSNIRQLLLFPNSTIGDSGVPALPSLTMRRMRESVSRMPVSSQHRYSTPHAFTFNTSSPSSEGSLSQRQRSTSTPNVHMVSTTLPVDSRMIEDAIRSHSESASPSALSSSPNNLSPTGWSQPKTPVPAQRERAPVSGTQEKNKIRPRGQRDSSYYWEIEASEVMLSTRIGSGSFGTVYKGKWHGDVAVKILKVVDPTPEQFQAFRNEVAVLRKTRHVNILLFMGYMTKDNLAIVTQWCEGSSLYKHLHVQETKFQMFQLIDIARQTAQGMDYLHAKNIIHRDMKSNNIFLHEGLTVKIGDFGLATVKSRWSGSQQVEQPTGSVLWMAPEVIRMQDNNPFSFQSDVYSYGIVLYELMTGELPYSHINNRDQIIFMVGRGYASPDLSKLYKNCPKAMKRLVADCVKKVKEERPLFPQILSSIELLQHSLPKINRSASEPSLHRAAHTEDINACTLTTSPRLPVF
Chain of Vascular endothelial growth factor receptor 2 (P35968 whole entry): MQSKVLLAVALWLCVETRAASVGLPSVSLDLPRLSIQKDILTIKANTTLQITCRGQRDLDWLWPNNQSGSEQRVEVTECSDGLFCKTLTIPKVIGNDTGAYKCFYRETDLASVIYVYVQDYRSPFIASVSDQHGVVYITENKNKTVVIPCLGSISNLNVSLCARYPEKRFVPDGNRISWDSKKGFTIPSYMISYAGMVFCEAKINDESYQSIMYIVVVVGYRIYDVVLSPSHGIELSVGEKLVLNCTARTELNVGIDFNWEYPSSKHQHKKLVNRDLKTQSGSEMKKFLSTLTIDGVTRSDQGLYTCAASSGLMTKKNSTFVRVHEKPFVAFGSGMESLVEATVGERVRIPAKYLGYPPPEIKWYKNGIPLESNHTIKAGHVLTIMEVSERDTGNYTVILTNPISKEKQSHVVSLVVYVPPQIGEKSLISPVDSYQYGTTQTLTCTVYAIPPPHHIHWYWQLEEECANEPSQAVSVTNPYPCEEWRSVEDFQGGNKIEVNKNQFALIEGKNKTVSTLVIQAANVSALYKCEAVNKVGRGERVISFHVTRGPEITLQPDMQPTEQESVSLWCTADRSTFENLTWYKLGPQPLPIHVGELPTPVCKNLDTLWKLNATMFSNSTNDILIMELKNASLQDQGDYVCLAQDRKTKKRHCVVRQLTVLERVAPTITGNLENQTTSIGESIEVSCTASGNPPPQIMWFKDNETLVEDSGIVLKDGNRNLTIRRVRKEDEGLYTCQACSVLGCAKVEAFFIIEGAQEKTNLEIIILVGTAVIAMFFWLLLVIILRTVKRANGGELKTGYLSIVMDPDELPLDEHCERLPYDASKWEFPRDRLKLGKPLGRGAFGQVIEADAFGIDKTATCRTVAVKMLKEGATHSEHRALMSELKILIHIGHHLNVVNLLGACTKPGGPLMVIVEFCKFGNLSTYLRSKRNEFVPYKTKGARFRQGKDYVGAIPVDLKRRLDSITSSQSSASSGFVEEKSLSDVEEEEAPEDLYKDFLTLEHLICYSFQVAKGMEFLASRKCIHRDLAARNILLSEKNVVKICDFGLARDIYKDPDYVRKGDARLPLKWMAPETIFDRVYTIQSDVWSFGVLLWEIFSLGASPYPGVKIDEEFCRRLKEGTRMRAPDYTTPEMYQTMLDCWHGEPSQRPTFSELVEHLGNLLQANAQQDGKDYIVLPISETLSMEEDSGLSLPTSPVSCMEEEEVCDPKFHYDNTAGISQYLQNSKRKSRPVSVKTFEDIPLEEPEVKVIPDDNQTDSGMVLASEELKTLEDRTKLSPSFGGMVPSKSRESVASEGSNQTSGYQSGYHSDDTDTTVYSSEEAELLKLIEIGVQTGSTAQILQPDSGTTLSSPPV

| SMILES | pIC50 [1] | pIC50 [2] | pIC50 [3] | pIC50 [4] | pIC50 [5] |
| --- | --- | --- | --- | --- | --- |
| CCCS(=O)(=O)Nc1ccc(F)c(C(=O)c2c[nH]c3ncc(Br)nc23)c1F | ≥ 5.00 | ≥ 5.00 |  |  |  |
| CCCS(=O)(=O)Nc1ccc(F)c(C(=O)c2c[nH]c3ncc(-c4cnc(OC)nc4)nc23)c1F | ≥ 5.00 | ≥ 5.00 | ≥ 5.00 |  |  |
| O=C(c1cccc(NS(=O)(=O)c2ccc(C(F)(F)F)cc2)c1F)c1c[nH]c2nccnc12 | ≥ 5.00 | ≥ 5.00 | ≥ 5.00 |  |  |
| CCCS(=O)(=O)Nc1ccc(F)c(C(=O)c2c[nH]c3ncc(-c4cnn(C)c4)nc23)c1F |  |  |  | ≥ 5.00 | ≥ 5.00 |
| O=C(c1c(F)ccc(NS(=O)(=O)c2ccc(C(F)(F)F)cc2)c1F)c1c[nH]c2nccnc12 | ≥ 5.00 | ≥ 5.00 |  |  |  |
| CCCS(=O)(=O)Nc1ccc(F)c(C(=O)c2c[nH]c3nccnc23)c1F | ≥ 5.00 | ≥ 5.00 | ≥ 5.00 |  |  |
| CCCS(=O)(=O)Nc1ccc(F)c(C(=O)c2c[nH]c3ncc(C#N)nc23)c1F |  |  |  |  | ≥ 5.00 |
